Reference: ChEMBL document CHEMBL5053494, “Novel halogenated arylvinyl-1,2,4 trioxanes as potent antiplasmodial as well as anticancer agents: Synthesis, bioevaluation, structure-activity relationship and in-silico studies” (Eur J Med Chem, 2021)
Calls of active or inactive are those of the source. No cut-off for these calls is given here.

Tests used:
[1] = test system: Plasmodium falciparum; assay: Antiplasmodial activity against ring stage chloroquine-resistant Plasmodium falciparum INDO assessed as ring stage parasite killing for 0 to 6 hrs by stage specific inhibition assay relative to control; format: functional; set-up: scale not given: the % may be the effect or the level left; conditions: time 0-6 hrs
[2] = test system: BEAS-2B; assay: Anticancer activity against human BEAS-2B cells assessed as cell growth inhibition measured for 72 hrs by MTT assay; format: functional, cell-based
[3] = test system: L02; assay: Anticancer activity against human L02 cells assessed as cell growth inhibition measured for 72 hrs by MTT assay; format: functional, cell-based; conditions: L02, 72 h
[4] = test system: Plasmodium berghei; assay: Antimalarial activity against Plasmodium berghei ANKA infected in Balb/c mouse assessed as suppression of parasitemia at 50 mg/kg, po administered for 4 days by microscopic analysis; format: functional; conditions: time 4 day
[5] = test system: Plasmodium falciparum; assay: Antiplasmodial activity against ring stage chloroquine-resistant Plasmodium falciparum INDO assessed as ring stage parasite killing for 12 hrs by stage specific inhibition assay relative to control; format: functional; set-up: scale not given: the % may be the effect or the level left
[6] = test system: A549; assay: Anticancer activity against human A549 cells assessed as cell growth inhibition measured for 72 hrs by MTT assay; format: functional, cell-based; conditions: A549, 72 h
[7] = test system: Plasmodium falciparum; assay: Resistance index, ratio of IC50 for antiplasmodial activity against artemisinin-resistant Plasmodium falciparum Cam 3.1 R539 to IC50 for antiplasmodial activity against chloroquine-resistant Plasmodium falciparum INDO; format: functional
[8] = Selectivity index, ratio of CC50 for human HEK293 cells to IC50 for antiplasmodial activity against chloroquine-resistant Plasmodium falciparum INDO; format: toxicity; conditions: HEK293 cells versus Plasmodium falciparum INDO
[9] = test system: Plasmodium falciparum; assay: Antiplasmodial activity against ring stage chloroquine-resistant Plasmodium falciparum Cam 3.1 R539 assessed as percentage survival at 70 nM for 6 hrs by ring stage survival assay; format: functional
[10] = test system: Plasmodium falciparum; assay: Antiplasmodial activity against ring stage chloroquine-resistant Plasmodium falciparum INDO assessed as percentage survival at 70 nM for 6 hrs by ring stage survival assay; format: functional, organism-based
[11] = test system: Plasmodium falciparum; assay: Antiplasmodial activity against ring stage chloroquine resistant Plasmodium falciparum INDO assessed as percentage survival at 700 nM for 6 hrs by ring stage survival assay; format: functional
[12] = Selectivity ratio of IC50 for anticancer activity against human BEAS-2B cells to IC50 for anticancer activity against human A549 cells; format: toxicity, cell-based; conditions: BEAS-2B cells versus A549 cells, read-out: Ratio IC50
[13] = test system: Plasmodium falciparum; assay: Antiplasmodial activity against chloroquine-resistant Plasmodium falciparum INDO assessed as growth inhibition by SYBER green 1 dye based fluorescence assay; format: functional, organism-based
[14] = test system: Plasmodium falciparum; assay: Antiplasmodial activity against artemisinin-resistant Plasmodium falciparum Cam 3.1 R539 assessed as growth inhibition by SYBER green 1 dye based fluorescence assay; format: functional, organism-based
[15] = test system: Plasmodium falciparum; assay: Antiplasmodial activity against trophozoite stage chloroquine-resistant Plasmodium falciparum INDO assessed as parasite killing for 0 to 4 hrs by stage specific inhibition assay relative to control; format: functional; set-up: scale not given: the % may be the effect or the level left; conditions: time 0-4 hrs
[16] = test system: Plasmodium berghei; assay: Antimalarial activity against Plasmodium berghei ANKA infected in Balb/c mouse assessed as suppression of parasitemia at 50 mg/kg, ip administered for 4 days by microscopic analysis; format: functional; conditions: time 4 day
[17] = test system: Plasmodium falciparum; assay: Antiplasmodial activity against trophozoite stage chloroquine-resistant Plasmodium falciparum INDO assessed as parasite killing for 4 to 8 hrs by stage specific inhibition assay relative to control; format: functional, organism-based; conditions: time 4-8 hrs
[18] = Cytotoxicity against human HEK293 cells assessed as cell viability measured for 24 hrs by MTT assay; format: cell-based
[19] = Selectivity ratio of IC50 for anticancer activity against human L02 cells to IC50 for anticancer activity against human HepG2 cells; format: toxicity, cell-based; conditions: L02 cells versus HepG2 cells, read-out: Ratio IC50
[20] = test system: HepG2; assay: Anticancer activity against human HepG2 cells assessed as cell growth inhibition measured for 72 hrs by MTT assay; format: functional, cell-based; conditions: HepG2, 72 h
[21] = test system: Plasmodium falciparum; assay: Antiplasmodial activity against ring stage chloroquine-resistant Plasmodium falciparum Cam 3.1 R539 assessed as percentage survival at 700 nM for 6 hrs by ring stage survival assay relative to control; format: functional
[22] = test system: Plasmodium falciparum; assay: Antiplasmodial activity against schizont stage chloroquine-resistant Plasmodium falciparum INDO assessed as parasite killing for 0 to 3 hrs by stage specific inhibition assay relative to control; format: functional, organism-based; conditions: time 0-3 hrs
[23] = test system: Plasmodium falciparum; assay: Antiplasmodial activity against schizont stage chloroquine-resistant Plasmodium falciparum INDO assessed as parasite killing for 6 to 9 hrs by stage specific inhibition assay relative to control; format: functional; set-up: scale not given: the % may be the effect or the level left; conditions: time 6-9 hrs
[24] = test system: Plasmodium falciparum; assay: Antiplasmodial activity against schizont stage chloroquine-resistant Plasmodium falciparum INDO assessed as parasite killing for 3 to 6 hrs by stage specific inhibition assay relative to control; format: functional; set-up: scale not given: the % may be the effect or the level left; conditions: time 3-6 hrs
[25] = test system: Plasmodium falciparum; assay: Antiplasmodial activity against schizont stage chloroquine-resistant Plasmodium falciparum INDO assessed as parasite killing for 9 to 12 hrs by stage specific inhibition assay relative to contol; format: functional; set-up: scale not given: the % may be the effect or the level left; conditions: time 9-12 hrs
[26] = test system: A549; assay: Induction of apoptosis in human A549 cells assessed as early apoptotic cells measured after 24 hrs by annexinV-FITC/propidium iodide staining based flow cytometry; format: functional
[27] = test system: BEAS-2B; assay: Induction of apoptosis in human BEAS-2B cells assessed as late apoptotic cells measured after 24 hrs by annexinV-FITC/propidium iodide staining based flow cytometry; format: functional

| SMILES | Activity [1] [%] | IC50 [2] [nM] | IC50 [3] [nM] | Activity [4] [%] | Activity [5] [%] | IC50 [6] [nM] | Ratio IC50 [7] | selectivity ratio [8] | Activity [9] [%] | Activity [10] | Activity [11] [%] | selectivity ratio [12] | IC50 [13] [nM] | IC50 [14] [nM] | Activity [15] [%] | Activity [16] [%] | Activity [17] | CC50 at 24 h [18] [nM] | selectivity ratio [19] | IC50 [20] [nM] | further results |
| --- | --- | --- | --- | --- | --- | --- | --- | --- | --- | --- | --- | --- | --- | --- | --- | --- | --- | --- | --- | --- | --- |
| C=C(c1ccc(OC)c(F)c1)C1COC2(OO1)C1CC3CC(C1)CC2C3 (stereo unspecified) | 38 | 61200 | 11900 | 100 | 100 | 48200 | 8.95 | 3970 | 30 | inactive | 100 | 0.68 | 4.48 | 40.1 | 50 | 100 | Active | 15900 | 0.57 | 32100 | Activity [21]: 6%; Activity [22]: Active |
| C=C(c1ccc(Cl)cc1Cl)C1COC2(CCCC2)OO1 (stereo unspecified) | 66 | 17400 | 2550 | 0 | 100 | 1430 | 7.29 | 1350 | 100 | inactive | 10 | 12.2 | 9.69 | 70.7 | 25 | 100 | Active | 12100 | 0.2 | 15700 | Activity [23]: 100%; Activity [24]: 60%; Activity [25]: 100%; Activity [21]: 20%; Activity [22]: Active |
| C=C(c1ccc(Cl)c(Cl)c1Cl)C1COC2(CCCC2)OO1 (stereo unspecified) | – | 11500 | 1190 | – | – | 690 | – | 72 | – | – | – | 16.7 | 20.6 | – | – | – | – | 1440 | 0.13 | 8450 | Activity [26]: 93.6%; Activity [27]: 8.6% |
| C=C(c1ccc(Cl)cc1Cl)C1COC2(CCCCC2)OO1 (stereo unspecified) | – | 16700 | 3690 | – | – | 810 | 6.09 | 145 | – | – | – | 20.6 | 18 | 109 | – | – | – | 2470 | 0.097 | 17600 | Activity [26]: 78%; Activity [27]: 4.5% |
